This note sets out measurements from PubChem BioAssay AID1963865 (Molecular Pharmacology Branch, DTP, NCI, 2024).

In the test the test system is KRAS PDC multicell spheroid viability. In words: Anticancer human tumor 825966-067-R-J1-PDC patient-derived colon carcinoma cell line growth inhibition [KRAS2]. The note with it: for viability, T/C: stronger effect = lower value. An excerpt:
Multicellular complex tumor spheroid response to RAS pathway inhibitors in combination with a targeted agents in patient-derived cell lines with oncogenic KRAS variants from multiple cancer types
A high-throughput screen of multi-cell type tumor spheroids was designed to identify active combinations of targeted small molecules and KRAS pathway inhibitors. Complex spheroids include a stromal component modeled by human endothelial cells (HUVEC) and fibroblasts modeled by human mesenchymal stem cells (MSCs). The concentration ranges selected for each drug and investigational agent were based upon clinically achievable concentrations if the clinical Cmax of the agent was known.
Compounds. The drugs and investigational agents: BI-3406 (NSC825286), BAY-293 (NSC824723), batoprotafib (TNO155; NSC825523), sotorasib (AMG 510; NSC818433), MRTX1257 (NSC819558), elimusertib (BAY 1895344; NSC800525), molibresib (GSK525762; NSC774829), temuterkib (LY3214996; NSC803410), venetoclax (NSC766270), alisertib (NSC759677), olaparib (NSC753686), talazoparib (NSC767125), erdafitinib (NSC781556), ipatasertib (NSC767898), cabozantinib (NSC761068), nintedanib (NSC756659), abemaciclib (NSC768073), docetaxel (NSC628503), trametinib (NSC758246), and sapanisertib (NSC764658) were obtained from the National Cancer Institute (NCI) Developmental Therapeutics Program Chemical Repository. The FDA-approved anticancer drug set is available from the Developmental Therapeutics Program. […] The stock solutions were prepared in dimethyl sulfoxide (DMSO, Sigma-Aldrich, St. Louis, MO, cat. D2650) at 800-fold the tested concentration and stored at -70 degrees C prior to their use. All drugs and investigational agents were tested over a range starting from a high concentration at or near the clinical Cmax and decreasing in half-log increments. If the clinical Cmax for an agent had not been determined, the highest concentration tested was 10 microM.
Cell Culture. All cells were maintained in an incubator at 37 degrees C and 5% CO2 with 95% humidity. The PDC lines were cultured according to standard operating procedures established by the NCI PDMR (https://pdmr.cancer.gov/sops/default.htm). Briefly, all PDCs were thawed and cultured in Matrigel-coated flasks prepared with a working solution of 1X Ham's F-12 nutrient mix, without supplementation (Invitrogen, Waltham, MA, cat. 11765054), 100 U/mL penicillin-streptomycin (Invitrogen, cat. 15140122), and 2.5% Matrigel (Corning Inc., Corning, NY, cat. 354248) for the first three passages. All PDCs were cultured in complete DMEM/F-12 media containing advanced DMEM/F-12 (Invitrogen, cat. 12634028), 4.9% defined fetal bovine serum, heat inactivated (HyClone Laboratories Inc., Logan, UT, cat. SH30070.03HI), 389 ng/mL hydrocortisone (Sigma-Aldrich, cat. H4001), 9.7 ng/mL human EGF recombinant protein (Invitrogen, cat. PHG0313), 23.4 microg/mL adenine (Sigma-Aldrich, cat. A2786), 97.3 U/mL penicillin-streptomycin (Invitrogen, cat. 15140122), 1.9 mM L-glutamine (Invitrogen, cat. 25030081), and 9.7 microM Y-27632 dihydrochloride (Tocris Bioscience, Bristol, United Kingdom, cat. 1254). The PDCs were cultured in complete DMEM/F12 media without 9.7 microM Y-27632 dihydrochloride for at least two passages prior to the screen. The established cell line HOP-62 was cultured in RPMI 1640 medium, HEPES (Invitrogen, cat. 22400105) with 10% defined fetal bovine serum (HyClone Laboratories Inc., cat. SH30070.03) and 2 mM L-glutamine (Invitrogen, cat. 25030081). The pooled donor HUVEC were cultured in endothelial cell growth medium 2 (PromoCell, Heidelberg, Germany, cat. C-22011) and the hMSC were cultured in mesenchymal stem cell growth medium 2 (PromoCell, cat. C-28009). For all experiments, HUVEC and hMSC were used at passages </=5, while the malignant cell lines were used at passages </=15. […]

Setting [1] is: curve of first compound, second compound 0.1 µM.
Setting [2] is: curve of first compound, second compound 0.316 µM.
Where [3] appears, read: curve of first compound, second compound 1 µM.
The mark [4] stands for this setting: curve of first compound, second compound 3.16 µM.
Where [5] appears, read: second compound 0.1 µM, first compound 0.0316 µM.
Setting [6] is: second compound 0.1 µM, first compound 0.1 µM.
Where [7] appears, read: second compound 0.1 µM, first compound 0.316 µM.
The mark [8] stands for this setting: second compound 0.1 µM, first compound 1 µM.
Where [9] appears, read: second compound 0.1 µM, first compound 3.16 µM.
[10] abbreviates: second compound 0.316 µM, first compound 0.0316 µM.
The mark [11] stands for this setting: second compound 0.316 µM, first compound 0.1 µM.
Setting [12] is: second compound 0.316 µM, first compound 0.316 µM.
Setting [13] is: second compound 0.316 µM, first compound 1 µM.
[14] abbreviates: second compound 0.316 µM, first compound 3.16 µM.
[15] abbreviates: second compound 1 µM, first compound 0.0316 µM.
[16] abbreviates: second compound 1 µM, first compound 0.1 µM.
Where [17] appears, read: second compound 1 µM, first compound 0.316 µM.
The mark [18] stands for this setting: second compound 1 µM, first compound 1 µM.
Setting [19] is: second compound 1 µM, first compound 3.16 µM.
The mark [20] stands for this setting: second compound 3.16 µM, first compound 0.0316 µM.
Where [21] appears, read: second compound 3.16 µM, first compound 0.1 µM.
The mark [22] stands for this setting: second compound 3.16 µM, first compound 0.316 µM.
Where [23] appears, read: second compound 3.16 µM, first compound 1 µM.
[24] abbreviates: second compound 3.16 µM, first compound 3.16 µM.
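Note: spheroids exposed to compounds for 7 days.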

For the compound `CC1COCCN1c1cc(-c2ccnn2C)c2ccnc(-c3ccn[nH]3)c2n1` (stereo not drawn) + COc1cc2nc(C)nc(NC(C)c3cc(N)cc(C(F)(F)F)c3)c2cc1OC1CCOC1, the IC50 (commonly the point on the concentration scale where inhibition reaches its midpoint) was greater than 3.16 µM under setting [1]; greater than 3.16 µM under setting [2]; 0.152 µM under setting [3]; 0.0692 µM under setting [4]; 0.0123 µM (curve of first compound, second compound 10 µM). The viability, T/C (as a rule, the ratio of treated to control) is 106% (second compound 0.1 µM, first compound 0.01 µM); 122% under setting [5]; 67.6% under setting [6]; 55% under setting [7]; 55.8% under setting [8]; 40.1% under setting [9]. Also, the viability, T/C was 112% (second compound 0.316 µM, first compound 0.01 µM); 112% under setting [10]; 58.3% under setting [11]; 58.1% under setting [12]; 52.7% under setting [13]; 38.8% under setting [14]. The viability, T/C is 74.6% (second compound 1 µM, first compound 0.01 µM); 80.4% under setting [15]; 61.5% under setting [16]; 28.3% under setting [17]; 34.8% under setting [18]; 27.1% under setting [19]. Besides, the viability, T/C reads like this: (second compound 3.16 µM, first compound 0.01 µM) 130%; under setting [20], 97.9%; under setting [21], 27.4%; under setting [22], 27.5%; under setting [23], 23.9%; under setting [24], 19.8%. Further, the viability, T/C reads like this: (second compound 10 µM, first compound 0.01 µM) 56.6%; (second compound 10 µM, first compound 0.0316 µM) 21.1%; (second compound 10 µM, first compound 0.1 µM) 7.19%; (second compound 10 µM, first compound 0.316 µM) 3.93%; (second compound 10 µM, first compound 1 µM) 2.81%; (second compound 10 µM, first compound 3.16 µM) 0.97%.

As for `COC(=O)c1ccc2c(C(=Nc3ccc(N(C)C(=O)CN4CCN(C)CC4)cc3)c3ccccc3)c(O)[nH]c2c1` + C=CC(=O)N1CCN(c2nc(OCC3CCCN3C)nc3c2CCN(c2cccc4cccc(C)c24)C3)CC1CC#N, the IC50 came to 0.591 µM (curve of first compound, second compound 0.0316 µM); 0.843 µM under setting [1]; 0.54 µM under setting [2]; 0.5 µM under setting [3]; 0.131 µM under setting [4]. Moreover, the viability, T/C was 78.2% (second compound 0.0316 µM, first compound 0.0316 µM); 94.9% (second compound 0.0316 µM, first compound 0.1 µM); 75% (second compound 0.0316 µM, first compound 0.316 µM); 28.2% (second compound 0.0316 µM, first compound 1 µM); 0.37% (second compound 0.0316 µM, first compound 3.16 µM); 0.12% (second compound 0.0316 µM, first compound 10 µM). Further, the viability, T/C is 107% under setting [5]; 84.5% under setting [6]; 96.4% under setting [7]; 42% under setting [8]; 0.21% under setting [9]; 0.13% (second compound 0.1 µM, first compound 10 µM). The viability, T/C under setting [10] is 75.4%; the viability, T/C under setting [11] was 83.7%; the viability, T/C under setting [12] is 95.8%; the viability, T/C under setting [13] was 9.82%; the viability, T/C under setting [14] was 0.13%; the viability, T/C (second compound 0.316 µM, first compound 10 µM) is 0.12%. Besides, the viability, T/C reads like this: under setting [15], 78.8%; under setting [16], 87.2%; under setting [17], 73.9%; under setting [18], 13.7%; under setting [19], 1.46%; (second compound 1 µM, first compound 10 µM) 0.22%. Also, the viability, T/C was 87% under setting [20]; 27.7% under setting [21]; 65.5% under setting [22]; 10.5% under setting [23]; 0.29% under setting [24]; 0.2% (second compound 3.16 µM, first compound 10 µM).

On to `COC(=O)c1ccc2c(C(=Nc3ccc(N(C)C(=O)CN4CCN(C)CC4)cc3)c3ccccc3)c(O)[nH]c2c1`, for which the viability, T/C is, setting by setting: (compound 0.0316 µM) 93.7% [middle of 5 runs]; (compound 0.1 µM) 90.7% [middle of 5 runs]; (compound 0.316 µM) 92.2% [middle of 5 runs]; (compound 3.16 µM) 0.53% [middle of 5 runs]; (compound 10 µM) 0.29% [middle of 4 runs]. Besides, the IC50 (curve of compound) is 1.24 µM [middle of 5 runs].

With `CC(=O)OC12COC1CC(O)C1(C)C(=O)C(O)C3=C(C)C(OC(=O)C(O)C(NC(=O)OC(C)(C)C)c4ccccc4)CC(O)(C(OC(=O)c4ccccc4)C21)C3(C)C` (stereo not drawn), the viability, T/C by setting is: (compound 0.01 µM) 20.3% [middle of 5 runs]; (compound 0.0316 µM) 23.2% [middle of 5 runs]; (compound 0.1 µM) 18.5% [middle of 5 runs]; (compound 0.316 µM) 23.7% [middle of 5 runs]; (compound 1 µM) 28.8% [middle of 5 runs]; (compound 3.16 µM) 36.5% [middle of 5 runs]. For the same compound, the IC50 (curve of compound) was less than 0.01 µM.
